The test system of one assay is MCF‐10A cells. The assay is described as follows: Cell viability in nontransformed cell line MCF-10A. The class given is cell-based. The conditions noted are these: Homo sapiens. The text has this: Thus, further optimization will be required to improve the therapeutic index.
FIGURE 5 Dose‐dependent effects of compound treatment (5b and 5f) on nontransformed breast cell viability across MCF‐10A.

In a further assay the target is HDAC3 (Homo sapiens, UniProt O15379). Kind of assay: Selectivity profile, single dose 0.5 µM, HDAC3. The class given is biochemical. The conditions noted are these: remaining enzyme activity; single‐dose duplicate mode at 0.5 μM; read-out: Enzyme % activity (relative to DMSO controls) at 0.5 µM, HDAC3. How it is done: (§1) The inhibitory profiles of 5b and 5f were evaluated against selected HDAC isoforms (HDAC1, HDAC3, HDAC4, HDAC8, and HDAC10) and PI3K isoforms (PI3Kδ, PI3Kγ, and PI3Kβ) at a fixed concentration of 0.5 µM (Table 3). […] While we explored the phenyl ring in the linker region to achieve selectivity for the HDAC6 isoform, we still observed HDAC class I inhibition. […] It is important to highlight that PI3Kδ is mainly expressed in hematopoietic system and plays roles in leukocyte signaling, T‐cell activation, and immune cell trafficking. FDA‐approved drug idelalisib is a selective PI3Kδ inhibitor in B‐cell malignancies; however, this drug is also related to disruption of the immune system, which can lead to immune manifestations, such as infections. In addition, while isoform‐selective PI3K inhibitors are well tolerated, pan‐inhibition of PI3K is less expected that compensatory mechanisms by the action of other PI3Ks can take place. Thus, a more balanced profile of PI3K inhibition can lead to an overall lack of toxicity of PI3K inhibitors.
Sequence of HDAC3 (O15379 whole entry, canonical isoform): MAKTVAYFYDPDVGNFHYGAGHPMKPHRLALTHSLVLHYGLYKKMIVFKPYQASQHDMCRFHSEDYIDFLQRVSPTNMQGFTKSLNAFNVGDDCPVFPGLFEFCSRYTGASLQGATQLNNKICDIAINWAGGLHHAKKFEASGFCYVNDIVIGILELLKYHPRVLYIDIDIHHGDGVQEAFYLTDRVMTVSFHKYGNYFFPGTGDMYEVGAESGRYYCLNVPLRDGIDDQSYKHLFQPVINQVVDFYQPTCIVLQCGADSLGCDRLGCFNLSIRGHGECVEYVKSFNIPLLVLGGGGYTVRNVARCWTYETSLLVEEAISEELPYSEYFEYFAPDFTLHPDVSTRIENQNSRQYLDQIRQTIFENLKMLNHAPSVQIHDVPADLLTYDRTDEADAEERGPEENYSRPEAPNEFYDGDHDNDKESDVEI
Sequence of HDAC3 (Q9Y618 395-489 partner limits assumed): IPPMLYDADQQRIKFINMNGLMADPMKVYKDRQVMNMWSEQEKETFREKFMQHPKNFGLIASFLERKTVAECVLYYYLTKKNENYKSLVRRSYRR

A further assay deals with HDAC10 (Homo sapiens, UniProt Q969S8). Kind of assay: Selectivity profile, single dose 0.5 µM, HDAC10. It counts as biochemical. The conditions noted are these: remaining enzyme activity; single‐dose duplicate mode at 0.5 μM; read-out: Enzyme % activity (relative to DMSO controls) at 0.5 µM, HDAC10. The procedure: as §1
Sequence of HDAC10 (Q969S8 whole entry): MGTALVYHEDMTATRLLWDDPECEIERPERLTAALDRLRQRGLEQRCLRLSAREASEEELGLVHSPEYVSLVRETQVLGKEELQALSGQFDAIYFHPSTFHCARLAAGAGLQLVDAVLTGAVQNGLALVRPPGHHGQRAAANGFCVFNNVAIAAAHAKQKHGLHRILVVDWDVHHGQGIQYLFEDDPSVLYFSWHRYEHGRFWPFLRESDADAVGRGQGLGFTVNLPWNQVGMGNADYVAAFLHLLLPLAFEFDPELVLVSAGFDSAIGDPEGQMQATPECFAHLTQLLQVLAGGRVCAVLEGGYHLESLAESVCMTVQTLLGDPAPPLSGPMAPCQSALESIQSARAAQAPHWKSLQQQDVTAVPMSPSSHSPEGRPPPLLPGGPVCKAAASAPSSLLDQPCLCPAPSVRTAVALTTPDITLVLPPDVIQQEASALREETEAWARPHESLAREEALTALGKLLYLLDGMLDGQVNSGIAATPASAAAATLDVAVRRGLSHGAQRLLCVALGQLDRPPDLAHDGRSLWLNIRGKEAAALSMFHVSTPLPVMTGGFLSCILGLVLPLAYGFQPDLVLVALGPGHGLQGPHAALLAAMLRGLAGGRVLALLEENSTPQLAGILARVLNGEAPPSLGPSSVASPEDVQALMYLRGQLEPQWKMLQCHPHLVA
For the next assay, the target named is PI3Kβ (Homo sapiens, UniProt P42338). The assay is described as follows: Selectivity profile, single dose 0.5 µM, PI3Kβ. The class given is biochemical. The conditions noted are these: remaining enzyme activity; single‐dose duplicate mode at 0.5 μM; read-out: Enzyme % activity (relative to DMSO controls) at 0.5 µM, PI3Kβ. How it is done:
as §1

For a further assay, the target named is PI3Kγ (Homo sapiens, UniProt P48736). Kind of assay: Selectivity profile, single dose 0.5 µM, PI3Kγ. It counts as biochemical. The conditions noted are these: remaining enzyme activity; single‐dose duplicate mode at 0.5 μM; read-out: Enzyme % activity (relative to DMSO controls) at 0.5 µM, PI3Kγ. How it is done: as §1
Sequence of PI3Kγ (P48736 whole entry): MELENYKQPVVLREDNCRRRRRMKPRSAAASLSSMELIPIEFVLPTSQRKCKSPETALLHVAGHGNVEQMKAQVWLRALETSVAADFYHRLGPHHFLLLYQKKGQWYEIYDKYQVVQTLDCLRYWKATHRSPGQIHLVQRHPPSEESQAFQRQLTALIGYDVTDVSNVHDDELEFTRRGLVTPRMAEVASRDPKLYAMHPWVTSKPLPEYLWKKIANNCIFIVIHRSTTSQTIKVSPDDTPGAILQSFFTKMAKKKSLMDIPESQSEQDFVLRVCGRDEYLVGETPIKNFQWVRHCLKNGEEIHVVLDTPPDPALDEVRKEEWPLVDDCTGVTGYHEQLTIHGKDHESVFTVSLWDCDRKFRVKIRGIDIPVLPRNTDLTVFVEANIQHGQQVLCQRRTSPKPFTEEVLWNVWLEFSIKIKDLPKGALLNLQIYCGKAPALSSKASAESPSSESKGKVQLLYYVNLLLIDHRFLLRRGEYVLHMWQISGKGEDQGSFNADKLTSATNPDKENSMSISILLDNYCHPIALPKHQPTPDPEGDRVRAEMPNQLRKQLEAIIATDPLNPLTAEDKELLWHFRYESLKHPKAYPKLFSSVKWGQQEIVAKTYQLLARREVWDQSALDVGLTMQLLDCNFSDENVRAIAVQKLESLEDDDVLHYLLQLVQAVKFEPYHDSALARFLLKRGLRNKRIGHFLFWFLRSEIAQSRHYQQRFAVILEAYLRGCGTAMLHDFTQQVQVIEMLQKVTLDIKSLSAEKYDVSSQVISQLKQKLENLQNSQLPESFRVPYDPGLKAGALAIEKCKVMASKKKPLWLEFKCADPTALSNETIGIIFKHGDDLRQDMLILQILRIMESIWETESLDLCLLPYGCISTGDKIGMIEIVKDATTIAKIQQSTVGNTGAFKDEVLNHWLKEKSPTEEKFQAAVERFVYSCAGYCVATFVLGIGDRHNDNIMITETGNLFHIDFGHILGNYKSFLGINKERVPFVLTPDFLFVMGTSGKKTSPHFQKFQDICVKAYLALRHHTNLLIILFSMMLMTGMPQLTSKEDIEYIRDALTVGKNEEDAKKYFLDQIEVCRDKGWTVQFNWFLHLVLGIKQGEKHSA
In assay [1] the test system is HDAC6 (acetylated α‐tubulin). Kind of assay: Western blot, acetylated α-tubulin in treated cells. The conditions noted are these: LY2, JIMT1, MDA‐MB‐231 cells, 24 h; seen at 3 µM, further increasing at 10 µM. The class given is cell-based. How it is done: (§2) FIGURE 4 Cell‐based evaluation of compounds 5a– 5f. Dose‐dependent effects of compound treatment (5a‐5f) on breast cancer cell viability across JIMT1 (A), MDA‐MB‐231 (B), and LY2 (C). Cell‐based evaluation of HDAC and PI3K inhibition by compounds 5b and 5f by Western blot. JIMT1 cells were treated for 24 h with compounds 5b (D) and 5f (E) at the concentrations of 1, 3, and 10 µM or with vehicle control (0.1% DMSO). Protein expression levels were analyzed by western blot using antibodies against acetylated α‐tubulin, acetyl H3 (H3K9Ac and H3K14Ac), phospho‐AKT (p‐AKT), and total AKT. GAPDH served as a loading control.
(§3) To investigate if 5b and 5f were acting as multitarget inhibitors, we evaluated the modulation of HDAC6 and PI3K signaling pathways by western blot analysis (Figure 4D,E). […]
(§4) Total protein samples were extracted from treated cells using a lysis buffer containing 0.1% IGEPAL CA‐630 (I8896, Merck), 0.5% deoxycholic acid (D2510, Merck), and 0.1% SDS (L3771, Merck), freshly supplemented with protease and phosphatase inhibitor cocktail (78442, Thermo Fisher Scientific). Protein concentrations were quantified using the Pierce BCA Protein Assay Kit (23227, Thermo Fisher Scientific) according to the manufacturer's instructions. […] Chemiluminescence signals were detected using the Amersham Imager 680 Imaging System. […]
A general note: A western blot detects proteins with antibodies after separation by electrophoresis.

Assay [2] relates to PI3K pathway (phosphorylation of AKT). Kind of assay: Western blot, phospho-AKT in treated cells. The conditions noted are these: LY2, JIMT1, MDA‐MB‐231 cells, 24 h; seen at 10 µM. The class given is cell-based. How it is done: as §2, §3, §4

The source of these data is article PMC13110364, “Design, Synthesis, and Biological Evaluation of Novel Triazine‐Based Dual Histone Deacetylase/phosphatidylinositol 3‐kinase Inhibitors for Breast Cancer Therapy” (Chemmedchem, 2026).

One may read the IC50 as the concentration that inhibits the measured activity by half.

Sequence of PI3Kβ (P42338 whole entry): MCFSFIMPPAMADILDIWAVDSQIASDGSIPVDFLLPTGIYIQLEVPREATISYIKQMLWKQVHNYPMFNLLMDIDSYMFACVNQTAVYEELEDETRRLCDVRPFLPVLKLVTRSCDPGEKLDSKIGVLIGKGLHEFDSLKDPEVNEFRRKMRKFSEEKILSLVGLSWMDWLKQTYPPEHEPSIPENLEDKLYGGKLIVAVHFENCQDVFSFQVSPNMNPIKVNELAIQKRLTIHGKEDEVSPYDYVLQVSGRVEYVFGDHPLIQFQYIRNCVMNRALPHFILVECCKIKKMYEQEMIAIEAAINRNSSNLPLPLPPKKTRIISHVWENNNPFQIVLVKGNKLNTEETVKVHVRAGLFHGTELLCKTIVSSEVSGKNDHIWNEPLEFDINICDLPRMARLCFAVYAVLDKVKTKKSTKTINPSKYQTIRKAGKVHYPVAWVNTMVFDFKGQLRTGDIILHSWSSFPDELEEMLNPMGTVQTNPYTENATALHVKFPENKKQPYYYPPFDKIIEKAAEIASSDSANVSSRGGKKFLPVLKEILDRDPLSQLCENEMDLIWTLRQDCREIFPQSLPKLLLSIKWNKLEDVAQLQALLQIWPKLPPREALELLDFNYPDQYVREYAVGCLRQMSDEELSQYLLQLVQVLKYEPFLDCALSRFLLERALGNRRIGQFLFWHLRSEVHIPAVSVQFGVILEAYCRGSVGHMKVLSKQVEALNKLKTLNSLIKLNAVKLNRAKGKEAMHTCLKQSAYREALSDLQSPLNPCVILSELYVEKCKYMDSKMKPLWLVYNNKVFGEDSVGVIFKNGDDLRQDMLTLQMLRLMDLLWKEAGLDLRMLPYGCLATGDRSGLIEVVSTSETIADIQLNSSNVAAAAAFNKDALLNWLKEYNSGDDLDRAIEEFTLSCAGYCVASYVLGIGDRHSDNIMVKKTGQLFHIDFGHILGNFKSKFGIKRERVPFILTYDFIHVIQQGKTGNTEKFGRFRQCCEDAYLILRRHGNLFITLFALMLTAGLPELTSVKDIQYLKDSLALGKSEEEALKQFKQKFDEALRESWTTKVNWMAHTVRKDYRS
Sequence of PI3Kβ (P27986 whole entry partner): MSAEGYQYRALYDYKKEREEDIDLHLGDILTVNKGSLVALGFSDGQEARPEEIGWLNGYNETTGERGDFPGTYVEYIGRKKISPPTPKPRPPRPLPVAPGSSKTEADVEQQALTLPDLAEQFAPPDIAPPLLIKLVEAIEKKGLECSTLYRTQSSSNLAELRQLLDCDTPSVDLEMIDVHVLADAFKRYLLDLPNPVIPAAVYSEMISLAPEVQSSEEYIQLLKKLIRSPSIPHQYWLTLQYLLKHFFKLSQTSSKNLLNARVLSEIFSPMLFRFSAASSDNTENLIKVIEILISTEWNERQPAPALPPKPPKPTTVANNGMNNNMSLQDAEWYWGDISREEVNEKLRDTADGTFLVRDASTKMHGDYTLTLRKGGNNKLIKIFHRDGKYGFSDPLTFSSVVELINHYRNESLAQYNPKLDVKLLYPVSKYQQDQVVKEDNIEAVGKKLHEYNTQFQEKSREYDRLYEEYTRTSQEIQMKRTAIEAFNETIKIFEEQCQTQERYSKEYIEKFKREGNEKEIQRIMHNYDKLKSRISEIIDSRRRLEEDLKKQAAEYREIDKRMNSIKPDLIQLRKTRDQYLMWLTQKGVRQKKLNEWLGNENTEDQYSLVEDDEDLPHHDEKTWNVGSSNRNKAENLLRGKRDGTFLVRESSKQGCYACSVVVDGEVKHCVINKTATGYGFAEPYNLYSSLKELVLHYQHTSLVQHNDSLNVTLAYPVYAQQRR

Turning to `COc1ccc(-c2nc(NCc3ccc(C(=O)NO)cc3)nc(N3CCOCC3)n2)cn1` [Compound 5f, N‐Hydroxy‐4‐(((4‐(6‐Methoxypyridin‐3‐yl)‐6‐Morpholino‐1,3,5‐Triazin‐2‐yl)Amino)Methyl)Benzamide], the IC50 in the assay with MCF‐10A cells was below 1000 nM. The remaining activity at 0.5 µM at HDAC3 was 26.6%; on HDAC10, 28.1%; on PI3Kβ, 86.9%; on PI3Kγ, 77.7%. Moreover, the “Acetylated α‐tubulin level, western blot” value in assay [1] is “accumulation of acetylated α‐tubulin”. The “Phosphorylation of AKT, western blot” value in assay [2] is on record as “decreased phosphorylation of AKT”.

Consider `O=C(NO)c1ccc(CNc2nc(-c3cccc(O)c3)nc(N3CCOCC3)n2)cc1` [Compound 5b, N‐Hydroxy‐4‐(((4‐(3‐Hydroxyphenyl)‐6‐Morpholino‐1,3,5‐Triazin‐2‐yl)Amino)Methyl)Benzamide], for which the IC50 in the assay with MCF‐10A cells is below 1000 nM. For the same compound, the remaining activity at 0.5 µM on HDAC3 came to 22.6%; at HDAC10, 15.9%; at PI3Kβ, 40.1%; at PI3Kγ it was 29.2%. The “Acetylated α‐tubulin level, western blot” value in assay [1] was “accumulation of acetylated α‐tubulin”. The “Phosphorylation of AKT, western blot” value in assay [2] is on record as “decreased phosphorylation of AKT”.
